Key:
[1] = system: HCT116 ARID1A isogenic (+/+ and −/−) cell lines; assay: Clonogenic survival of ARID1A isogenic cells; type: cell-based, human
Experimental: (§1) FIG. 2. In vitro ARID1A/ATR synthetic lethality. A. Chemical structure of VX-970. B. Western blot of ARID1A in human ARID1A isogenic HCT116 cells. C. Image of colonies in 6 well-plate clonogenic assay. HCT116 ARID1A isogenic (^+/+ and ^−/−) cell lines were exposed to increasing concentrations of the VE-821 (0, 0.1, 1 uM) and VX-970 (0, 0.01, 0.05 uM) for 14 days. D and E. Dose response clonogenic survival curve of HCT116 ARID1A isogenic (^+/+ and ^−/−) cell lines exposed to increasing concentrations of the VE-821 and VX-970 for 14 days. Error bars represent SD from triplicate experiments, ANOVA p-value of <0.0001. F. Area under curve (AUC) box whisker comparison plot for human tumor cell lines exposed to VX-970 for five days. ARID1A wild type tumor cell lines (n=15) were compared to ARID1A mutant cell lines (n=9). Student's t-test p=0.00594. G. Dose response clonogenic survival curve of mouse Arid1a isogenic ES cell lines. Experiment was performed as per (C). Error bars represent SD from triplicate experiments, ANOVA p value of <0.0001. H. Western blot of Arid1a protein expression in mouse ES Arid1a isogenic cells. I. Z score box whisker comparison plot for 86 human tumor cell lines transfected with ATR siRNA. Cells lines were transfected with siRNA and cell viability was estimated five days later by Cell Titre Glo reagent.
Short-term survival assays were performed in 384-well plates. Exponentially growing cells were plated at a concentration of 500 cells/well. Drug was added 24 h after seeding and cells were continuously exposed to the drug for five days, after which cell viability was estimated using CellTitre-Glo luminescence (Promega). For clonogenic assays, cells were seeded in 6-well plates (500 cells/well) and continuously exposed to drug 24!h after seeding for 14 days. Media containing fresh drug was replaced every 72 hours. Cells were fixed with 10% trichloroacetic acid and stained with sulphorhodamine B (Sigma-Aldrich, Gillingham, UK). Colonies were counted manually. All cell-based assays were performed at least in triplicate.

[2] = system: Arid1a+/+ and Arid1a−/− mouse embryonic stem (ES) cells; assay: Clonogenic survival of mouse Arid1a isogenic ES cells; type: cell-based; details: p<0.001 ANOVA
Experimental: as §1, with “I. Z score box whisker comparison plot for 86 human tumor cell lines transfected with ATR siRNA. Cells lines were transfected with siRNA and cell viability was estimated five days later by Cell Titre Glo reagent.” left out
(§2) Short-term survival assays were performed in 384-well plates. […] Drug was added 24 h after seeding and cells were continuously exposed to the drug for five days, after which cell viability was estimated using CellTitre-Glo luminescence (Promega). […] Colonies were counted manually. […]

[3] = system: TOV21G (ARID1A mutant) and RMG1 (ARID1A wildtype) cells; assay: Five-day dose response in OCCC cell lines TOV21G and RMG1; type: cell-based, human; details: 5 days exposure
Experimental: FIG. 3. In vivo ARID1A/ATR synthetic lethality. A. Schematic of VX-970 therapy experiment in mice bearing established HCT116 ARID1A^+/+ and ARID1A^−/− xenografts. Cells were inoculated subcutaneously into nude mice and tumors allowed to establish for 10 days. Mice were then randomized to treatment regimens of either VX-970 (60 mg/kg, 4× weekly by oral gavage) or vehicle. Mice were then treated for a subsequent 40 days. Tumor volume was monitored twice weekly. B. Relative tumor volume plot from (A) showing efficacy of VX-970 and selectivity for ARID1A^−/− xenografts* p=0.024, ANOVA. C. Schematic of tumor incidence experiment in mice with non-established HCT116 ARID1A^+/+ and ARID1A^−/− xenografts. Mice were inoculated with cells as before, randomized and then treated with VX-970. […] Tumor volume was monitored twice weekly and overall tumour incidence was assessed 40 days later. […] PARP-1, cleaved PARP-1 (85 kDa fragment) and tubulin were detected by western blot. […] Caspase3/7 activity was assessed using Caspase-Glo and total cellular viability was estimated using CellTitre-Glo. Luminescence ratios for Caspase-Glo (i.e. apoptotic cells) and CellTitre-Glo (ie viable cells) was determined for each dose and normalized to DMSO treated samples. *Student's t-test, p<0.05. […]
Short-term survival assays were performed in 384-well plates. […] Colonies were counted manually. […]

ATR = ATR (Homo sapiens, UniProt Q13535); details: ATR catalytic inhibitor; reference 15; cited from earlier work
ATR, sequence (Q13535 whole entry): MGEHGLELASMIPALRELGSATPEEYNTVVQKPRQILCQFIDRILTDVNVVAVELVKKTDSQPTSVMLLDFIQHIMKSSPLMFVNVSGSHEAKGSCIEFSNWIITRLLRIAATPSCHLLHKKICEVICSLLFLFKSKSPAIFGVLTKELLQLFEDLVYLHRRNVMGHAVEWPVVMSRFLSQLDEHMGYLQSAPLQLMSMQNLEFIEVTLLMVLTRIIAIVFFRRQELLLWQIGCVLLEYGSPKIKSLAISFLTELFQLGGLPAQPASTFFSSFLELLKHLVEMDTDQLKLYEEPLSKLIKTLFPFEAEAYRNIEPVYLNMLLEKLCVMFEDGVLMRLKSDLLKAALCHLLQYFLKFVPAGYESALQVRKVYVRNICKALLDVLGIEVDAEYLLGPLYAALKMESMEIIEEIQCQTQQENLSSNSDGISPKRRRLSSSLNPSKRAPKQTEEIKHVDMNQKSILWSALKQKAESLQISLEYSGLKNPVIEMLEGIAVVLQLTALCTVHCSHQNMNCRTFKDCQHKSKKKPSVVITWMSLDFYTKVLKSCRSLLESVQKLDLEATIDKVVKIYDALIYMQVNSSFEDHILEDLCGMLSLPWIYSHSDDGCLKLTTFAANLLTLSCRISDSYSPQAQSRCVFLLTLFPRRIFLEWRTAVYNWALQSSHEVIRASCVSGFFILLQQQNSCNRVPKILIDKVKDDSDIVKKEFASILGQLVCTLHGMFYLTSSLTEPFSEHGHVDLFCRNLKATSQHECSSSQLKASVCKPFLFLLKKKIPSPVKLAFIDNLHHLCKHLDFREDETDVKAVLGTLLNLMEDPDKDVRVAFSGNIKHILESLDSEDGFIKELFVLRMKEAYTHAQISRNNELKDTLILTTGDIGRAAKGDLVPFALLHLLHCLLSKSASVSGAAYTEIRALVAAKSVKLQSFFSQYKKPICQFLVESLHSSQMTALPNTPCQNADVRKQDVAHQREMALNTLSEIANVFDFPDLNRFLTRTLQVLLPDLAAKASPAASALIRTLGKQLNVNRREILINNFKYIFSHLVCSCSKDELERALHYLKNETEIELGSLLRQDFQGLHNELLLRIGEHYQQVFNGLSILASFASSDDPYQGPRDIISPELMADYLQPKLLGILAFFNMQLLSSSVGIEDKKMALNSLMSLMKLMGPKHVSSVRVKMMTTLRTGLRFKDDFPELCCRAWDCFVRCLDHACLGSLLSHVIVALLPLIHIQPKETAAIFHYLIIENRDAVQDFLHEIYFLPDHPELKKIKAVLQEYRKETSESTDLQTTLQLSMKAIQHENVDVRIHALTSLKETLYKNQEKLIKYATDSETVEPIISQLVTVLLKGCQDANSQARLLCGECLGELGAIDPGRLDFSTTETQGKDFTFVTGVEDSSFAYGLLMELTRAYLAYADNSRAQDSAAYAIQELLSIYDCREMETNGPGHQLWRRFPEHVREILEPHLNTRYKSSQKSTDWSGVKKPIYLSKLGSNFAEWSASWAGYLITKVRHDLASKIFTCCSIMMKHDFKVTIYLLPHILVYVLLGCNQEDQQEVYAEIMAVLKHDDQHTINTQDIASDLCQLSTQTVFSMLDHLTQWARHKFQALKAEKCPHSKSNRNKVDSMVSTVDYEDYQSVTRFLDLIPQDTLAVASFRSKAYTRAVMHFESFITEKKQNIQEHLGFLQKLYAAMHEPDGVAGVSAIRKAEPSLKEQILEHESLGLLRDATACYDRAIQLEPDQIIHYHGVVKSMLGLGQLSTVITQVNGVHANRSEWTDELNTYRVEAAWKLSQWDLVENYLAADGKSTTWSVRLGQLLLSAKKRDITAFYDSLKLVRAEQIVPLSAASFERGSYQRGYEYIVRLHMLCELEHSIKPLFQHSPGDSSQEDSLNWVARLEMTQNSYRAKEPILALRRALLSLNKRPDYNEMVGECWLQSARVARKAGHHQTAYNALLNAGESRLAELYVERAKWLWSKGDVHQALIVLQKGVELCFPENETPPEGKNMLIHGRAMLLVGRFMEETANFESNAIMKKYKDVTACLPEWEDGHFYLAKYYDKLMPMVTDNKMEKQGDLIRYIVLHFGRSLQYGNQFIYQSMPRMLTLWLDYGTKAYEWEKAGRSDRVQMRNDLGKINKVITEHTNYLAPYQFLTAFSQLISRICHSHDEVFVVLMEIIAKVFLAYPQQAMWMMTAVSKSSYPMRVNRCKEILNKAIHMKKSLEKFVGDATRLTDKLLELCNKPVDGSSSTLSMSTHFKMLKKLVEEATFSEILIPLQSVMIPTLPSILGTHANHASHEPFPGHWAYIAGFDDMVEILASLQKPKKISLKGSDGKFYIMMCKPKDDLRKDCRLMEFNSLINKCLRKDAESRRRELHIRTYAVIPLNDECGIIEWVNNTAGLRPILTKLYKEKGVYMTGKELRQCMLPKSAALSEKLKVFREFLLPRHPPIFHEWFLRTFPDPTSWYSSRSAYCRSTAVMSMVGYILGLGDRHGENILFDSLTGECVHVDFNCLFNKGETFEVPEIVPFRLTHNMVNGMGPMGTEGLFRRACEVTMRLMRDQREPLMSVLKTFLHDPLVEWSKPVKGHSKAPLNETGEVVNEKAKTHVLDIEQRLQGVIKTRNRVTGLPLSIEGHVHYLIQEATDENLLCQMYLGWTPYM
ATR, sequence (Q8WXE1 whole entry partner): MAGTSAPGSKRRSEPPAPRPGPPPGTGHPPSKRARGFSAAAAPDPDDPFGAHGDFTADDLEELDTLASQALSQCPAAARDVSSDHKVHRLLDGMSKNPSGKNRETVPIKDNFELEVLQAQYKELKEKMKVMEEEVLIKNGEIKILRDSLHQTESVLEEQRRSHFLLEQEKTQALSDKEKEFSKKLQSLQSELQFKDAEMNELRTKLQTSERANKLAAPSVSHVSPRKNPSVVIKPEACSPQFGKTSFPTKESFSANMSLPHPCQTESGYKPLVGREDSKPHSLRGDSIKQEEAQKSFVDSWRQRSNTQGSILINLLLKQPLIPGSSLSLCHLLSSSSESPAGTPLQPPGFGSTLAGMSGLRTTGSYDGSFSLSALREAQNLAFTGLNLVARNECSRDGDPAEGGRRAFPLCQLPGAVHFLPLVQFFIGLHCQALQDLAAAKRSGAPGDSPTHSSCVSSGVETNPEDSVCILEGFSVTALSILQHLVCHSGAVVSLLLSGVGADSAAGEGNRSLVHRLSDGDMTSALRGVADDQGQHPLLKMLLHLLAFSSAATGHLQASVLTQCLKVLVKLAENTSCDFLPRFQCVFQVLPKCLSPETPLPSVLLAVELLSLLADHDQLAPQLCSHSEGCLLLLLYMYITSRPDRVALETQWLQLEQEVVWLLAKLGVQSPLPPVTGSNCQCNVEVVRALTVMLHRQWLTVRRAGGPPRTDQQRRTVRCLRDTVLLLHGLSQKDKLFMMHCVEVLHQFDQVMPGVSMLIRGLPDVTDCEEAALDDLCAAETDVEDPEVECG

HCC1143 cells = assay: 384 well plate cell survival after ARID1A siRNA transfection; type: cell-based, human; details: ARID1A siRNA vs control, five continuous days exposure
From the text: FIG. 1. […] A. Structure of VE-821 and schematic describing workflow for parallel VE-821 chemosensitisation screens in MCF12A and HCC1143 cells. B. Scatter plots of VE-821 Drug Effect (DE) Z-scores from all 1280 siRNAs used in the in the chemosensitisation screens. The DE Z-score threshold of −2 (red line) was used for defining candidate synthetic lethal interactions is shown. C. Venn diagram of DE<−2 VE-821 sensitisation hits in MCF12A and HCC1143 cells. Numbers shown indicate number of sensitisation genes. Amongst the 30 genes with DE Z-scores <−2 in both cell lines, seven well-established tumour suppressor genes were identified. D. Bar charts illustrating DE Z-scores for control, non-targeting, siRNAs (siALLSTAR, siCON1, siCON2) and ARID1A siRNAs in the chemosensitisation screens. Values shown are median from triplicate screens and error bars represent SD. […]
A siRNA library was purchased from Dharmacon. […] RNAi screening conditions were optimised and raw CellTitre-Glo (Promega) luminescent viability readings were generated as previously described21. […]
as §2

SMILES | ARID1A−/− selectivity [1] | selective targeting of Arid1a−/− ES cells in clonogenic assays [2] | sensitivity of TOV21G vs RMG1 [3] | Ki (ATR) [µM] | ATRi sensitivity caused by ARID1A siRNA (HCC1143 cells)
CN(Cc1cnc2nc(N)nc(N)c2n1)c1ccc(C(=O)N[C@@H](CCC(=O)O)C(=O)O)cc1 [methotrexate] | neither taxol or methotrexate elicited ARID1A^−/− selectivity | – | – | – | –
CS(=O)(=O)c1ccc(-c2cnc(N)c(C(=O)Nc3ccccc3)n2)cc1 [VE-821, 3-amino-6-(4-methylsulfonylphenyl)-N-phenyl-pyrazine-2-carboxamide] | – | selectively targeted Arid1a^−/− ES cells | more sensitive to both VE-821 and VX-970 | 0.013 | significantly enhanced sensitivity to VE-821
CC(=O)O[C@H]1C(=O)[C@@]2(C)[C@H]([C@H](OC(=O)c3ccccc3)[C@]3(O)C[C@H](OC(=O)[C@H](O)[C@@H](NC(=O)c4ccccc4)c4ccccc4)C(C)=C1C3(C)C)[C@]1(OC(C)=O)CO[C@@H]1C[C@@H]2O [taxol] | neither taxol or methotrexate elicited ARID1A^−/− selectivity | – | – | – | –
